Test results taken from patent publication EP4806891A1 (Kangbaida (Sichuan) Biotechnology Co., Ltd., priority 2023, dated 2025).

The compounds below were run against T1, HEK-Blue-hTLR9 cells (Homo sapiens, UniProt Q9NR96) (assay: HEK-Blue-hTLR9 cell inhibition assay). Settings: ODN2006 1 µM, 16 h, OD 620 nm, read-out: TLR9 IC50.
T1 construct: expressed in transfected cells; host or cells: HEK-Blue-hTLR9 cells (HEK293-derived reporter line)
T1 sequence (Q9NR96 26-1032): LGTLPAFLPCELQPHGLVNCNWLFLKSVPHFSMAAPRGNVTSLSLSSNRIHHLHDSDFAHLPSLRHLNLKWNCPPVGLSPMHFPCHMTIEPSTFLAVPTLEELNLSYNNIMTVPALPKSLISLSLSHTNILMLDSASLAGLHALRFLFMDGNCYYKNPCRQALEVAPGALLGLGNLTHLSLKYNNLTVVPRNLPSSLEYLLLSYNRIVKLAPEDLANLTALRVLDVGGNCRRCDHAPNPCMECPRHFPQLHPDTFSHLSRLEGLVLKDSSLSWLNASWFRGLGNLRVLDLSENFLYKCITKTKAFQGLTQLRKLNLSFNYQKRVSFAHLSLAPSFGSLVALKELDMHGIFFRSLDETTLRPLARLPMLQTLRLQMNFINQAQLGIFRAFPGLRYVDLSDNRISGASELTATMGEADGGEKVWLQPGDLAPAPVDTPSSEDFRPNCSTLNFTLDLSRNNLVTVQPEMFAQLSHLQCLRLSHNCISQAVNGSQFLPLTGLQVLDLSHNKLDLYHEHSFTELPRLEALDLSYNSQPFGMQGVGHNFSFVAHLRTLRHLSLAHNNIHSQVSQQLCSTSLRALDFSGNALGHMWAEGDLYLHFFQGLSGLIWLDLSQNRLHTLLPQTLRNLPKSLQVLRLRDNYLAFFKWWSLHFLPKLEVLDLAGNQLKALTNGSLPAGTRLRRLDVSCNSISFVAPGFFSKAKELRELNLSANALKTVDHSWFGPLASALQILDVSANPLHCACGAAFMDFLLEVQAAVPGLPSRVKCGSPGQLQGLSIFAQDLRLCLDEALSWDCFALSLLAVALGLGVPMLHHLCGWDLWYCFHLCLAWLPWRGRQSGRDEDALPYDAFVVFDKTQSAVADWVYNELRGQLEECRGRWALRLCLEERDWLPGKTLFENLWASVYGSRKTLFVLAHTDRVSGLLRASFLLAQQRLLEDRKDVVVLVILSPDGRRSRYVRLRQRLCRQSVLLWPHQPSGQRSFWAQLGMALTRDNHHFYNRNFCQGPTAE
Type: cell-based
Method in brief: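 Cells were pre-incubated 4 h, then co-treated 16 h at 37 °C with compound (10 doses, 0.5–10000 nM final) plus R848 (0.8 µM for TLR7, 3 µM for TLR8) or ODN2006 (1 µM, TLR9). Reporter OD620 gave inhibition relative to DMSO blank and agonist-only controls; IC50 came from curve fitting.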

SMILES | IC50
N#Cc1ccc(N2C[C@]3(c4nnc([C@H]5CN(CC(N)=O)CCO5)o4)C[C@]3(C(F)(F)F)C2)c2cccnc12 [Compound 56, 2-((R)-2-(5-((1S,5R)-3-(8-cyanoquinolin-5-yl)-5-(trifluoromethyl)-3-azabicyclo[3.1.0]hexan-1-yl)-1,3,4-oxadiazol-2-yl)morpholino)acetamide] | > 10000 nM
CN1CCC(F)(c2nnc([C@]34CN(c5ccc(C#N)c6ncccc56)C[C@@]3(C(F)(F)F)C4)o2)C1 (stereo partly drawn) [Compound 47, 5-((1S,5R)-1-(5-(3-fluoro-1-methylpyrrolidin-3-yl)-1,3,4-oxadiazol-2-yl)-5-(trifluoromethyl)-3-azabicyclo[3.1.0]hexan-3-yl)quinoline-8-carbonitrile] | > 10000 nM
N#Cc1ccc(N2C[C@]3(c4nnc(C5CCN(CC(N)=O)CC5)o4)C[C@]3(C(F)(F)F)C2)c2cccnc12 [Compound 17, 2-(4-(5-((1S,5R)-3-(8-cyanoquinolin-5-yl)-5-(trifluoromethyl)-3-azabicyclo[3.1.0]hexan-1-yl)-1,3,4-oxadiazol-2-yl)piperidin-1-yl)acetamide] | > 10000 nM
CN1CC(F)(c2nnc([C@]34CN(c5ccc(C#N)c6ncccc56)C[C@@]3(C(F)(F)F)C4)o2)C1 [Compound 49, 5-((1S,5R)-1-(5-(3-fluoro-1-methylazetidin-3-yl)-1,3,4-oxadiazol-2-yl)-5-(trifluoromethyl)-3-azabicyclo[3.1.0]hexan-3-yl)quinoline-8-carbonitrile] | > 10000 nM
CN(C)[C@H]1CC[C@H](c2nnc([C@]34CN(c5ccc(C#N)c6ncccc56)C[C@@]3(C(F)(F)F)C4)o2)CC1 [Compound 21, 5-((1S,5R)-1-(5-((1R,4S)-4-(dimethylamino)cyclohexyl)-1,3,4-oxadiazol-2-yl)-5-(trifluoromethyl)-3-azabicyclo[3.1.0]hexan-3-yl)quinoline-8-carbonitrile] | > 1000 nM
CN1[C@@H]2CC[C@H]1C[C@H](c1nnc([C@]34CN(c5ccc(C#N)c6ncccc56)C[C@@]3(C(F)(F)F)C4)o1)C2 [Compound 11, 5-((1S,5R)-1-(5-((1R,3S,5S)-8-methyl-8-azabicyclo[3.2.1]octan-3-yl)-1,3,4-oxadiazol-2-yl)-5-(trifluoromethyl)-3-azabicyclo[3.1.0]hexan-3-yl)quinoline-8-carbonitrile] | > 1000 nM
CN1CCC(Oc2nnc([C@]34CN(c5ccc(C(F)(F)F)c6ncccc56)C[C@@]3(C(F)(F)F)C4)o2)CC1 [Compound 92, 2-((1-methylpiperidin-4-yl)oxy)-5-((1S,5R)-5-(trifluoromethyl)-3-(8-(trifluoromethyl)quinolin-5-yl)-3-azabicyclo[3.1.0]hexan-1-yl)-1,3,4-oxadiazole] | > 1000 nM
CN1CCC(Oc2nnc([C@]34CN(c5ccc(C#N)n6ncc(F)c56)C[C@@]3(C(F)(F)F)C4)o2)CC1 [Compound 31, 3-fluoro-4-((1S,5R)-1-(5-((1-methylpiperidin-4-yl)oxy)-1,3,4-oxadiazol-2-yl)-5-(trifluoromethyl)-3-azabicyclo[3.1.0]hexan-3-yl)pyrazolo[1,5-a]pyridine-7-carbonitrile] | > 1000 nM
FC(F)(F)c1ccc(N2C[C@]3(c4nnc(C5CCN(CC6CC6)CC5)o4)C[C@]3(C(F)(F)F)C2)c2cccnc12 [Compound 76, 2-(1-(cyclopropylmethyl)piperidin-4-yl)-5-((1S,5R)-5-(trifluoromethyl)-3-(8-(trifluoromethyl)quinolin-5-yl)-3-azabicyclo[3.1.0]hexan-1-yl)-1,3,4-oxadiazole] | > 1000 nM
CN1CCC(Nc2nnc([C@]34CN(c5ccc(C#N)c6ncccc56)C[C@@]3(C(F)(F)F)C4)o2)CC1 [Compound 6, 5-((1S,5R)-1-(5-((1-methylpiperidin-4-yl)amino)-1,3,4-oxadiazol-2-yl)-5-(trifluoromethyl)-3-azabicyclo[3.1.0]hexan-3-yl)quinoline-8-carbonitrile] | > 1000 nM
CN1CCC(Cc2nnc([C@]34CN(c5ccc(C#N)c6ncccc56)C[C@@]3(C(F)(F)F)C4)n2C)CC1 [Compound 38, 5-((1S,5R)-1-(4-methyl-5-((1-methylpiperidin-4-yl)methyl)-4H-1,2,4-triazol-3-yl)-5-(trifluoromethyl)-3-azabicyclo[3.1.0]hexan-3-yl)quinoline-8-carbonitrile] | > 10000 nM
CN(C)Cc1nnc([C@]23CN(c4ccc(C#N)c5ncccc45)C[C@@]2(C(F)(F)F)C3)o1 [Compound 42, 5-((1S,5R)-1-(5-((dimethylamino)methyl)-1,3,4-oxadiazol-2-yl)-5-(trifluoromethyl)-3-azabicyclo[3.1.0]hexan-3-yl)quinoline-8-carbonitrile] | > 10000 nM
CN1CCC(c2nnc([C@]34CN(c5ccc(C#N)n6ncc(Cl)c56)C[C@@]3(C(F)(F)F)C4)o2)CC1 [Compound 84, 3-chloro-4-((1S,5R)-1-(5-(1-methylpiperidin-4-yl)-1,3,4-oxadiazol-2-yl)-5-(trifluoromethyl)-3-azabicyclo[3.1.0]hexan-3-yl)pyrazolo[1,5-a]pyridine-7-carbonitrile] | > 1000 nM
N#Cc1ccc(N2C[C@]3(c4nnc(CCN5CCOCC5)o4)C[C@]3(C(F)(F)F)C2)c2cccnc12 [Compound 43, 5-((1S,5R)-1-(5-(morpholinoethyl)-1,3,4-oxadiazol-2-yl)-5-(trifluoromethyl)-3-azabicyclo[3.1.0]hexan-3-yl)quinoline-8-carbonitrile] | > 10000 nM
N#Cc1ccc(N2C[C@]3(c4nnc([C@H]5CC[C@H](N)CC5)o4)C[C@]3(C(F)(F)F)C2)c2cccnc12 [Compound 20, 5-((1S,5R)-1-(5-((1R,4S)-4-aminocyclohexyl)-1,3,4-oxadiazol-2-yl)-5-(trifluoromethyl)-3-azabicyclo[3.1.0]hexan-3-yl)quinoline-8-carbonitrile] | > 1000 nM
CN1[C@@H]2CC[C@H]1C[C@H](c1nnc([C@]34CN(c5ccc(C(F)(F)F)c6ncccc56)C[C@@]3(C(F)(F)F)C4)o1)C2 [Compound 79, 2-((1R,3S,5S)-8-methyl-8-azabicyclo[3.2.1]octan-3-yl)-5-((1S,5R)-5-(trifluoromethyl)-3-(8-(trifluoromethyl)quinolin-5-yl)-3-azabicyclo[3.1.0]hexan-1-yl)-1,3,4-oxadiazole] | > 1000 nM
CN1CC(Cc2nnc([C@]34CN(c5ccc(C#N)n6ncc(F)c56)C[C@@]3(C(F)(F)F)C4)o2)C1 [Compound 30, 3-fluoro-4-((1S,5R)-1-(5-((1-methylazetidin-3-yl)methyl)-1,3,4-oxadiazol-2-yl)-5-(trifluoromethyl)-3-azabicyclo[3.1.0]hexan-3-yl)pyrazolo[1,5-a]pyridine-7-carbonitrile] | > 1000 nM
